# Test results: PubChem BioAssay (NCI)
# Several values for one entry are separate records, joined by “and”; a condition that tells them apart may be missing. Equal values may be shown once.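 These data come from cells grown in 96-well plates and exposed to compound for 48 hours at five concentrations. GI50: concentration for 50% inhibition of growth. TGI denotes the concentration required for complete inhibition of growth.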 Where a SMILES comes first, the peptide text is derived from it. [ ]: non-standard residue; d: D form. The star is where a group is joined. ξ: configuration not given here. 4Abz = Nc1ccc(C(=O)O)cc1; ξL = CC(C)CC(N)C(=O)O; NHOH = ON*
# Tests used:
# Assay in all cases: NCI tumour cell line growth inhibition, 48 h
# U251 CNS = tested on: U251 CNS
# NCI-H23 lung = tested on: NCI-H23 lung
# OVCAR-4 ovarian = tested on: OVCAR-4 ovarian
# HS 578T breast = tested on: HS 578T breast
# CCRF-CEM leukemia = tested on: CCRF-CEM leukemia
# CAKI-1 renal = tested on: CAKI-1 renal
# HCT-15 colon = tested on: HCT-15 colon
# HCC-2998 colon = tested on: HCC-2998 colon
# OVCAR-5 ovarian = tested on: OVCAR-5 ovarian
# NCI/ADR-RES ovarian = tested on: NCI/ADR-RES ovarian
Structure (SMILES),GI50 (U251 CNS),TGI (U251 CNS) [µM],GI50 (NCI-H23 lung),TGI (NCI-H23 lung),GI50 (OVCAR-4 ovarian),TGI (OVCAR-4 ovarian) [µM],GI50 (HS 578T breast),TGI (HS 578T breast),GI50 (CCRF-CEM leukemia) [µM],TGI (CCRF-CEM leukemia) [µM],GI50 (CAKI-1 renal),TGI (CAKI-1 renal),GI50 (HCT-15 colon) [µM],TGI (HCT-15 colon),GI50 (HCC-2998 colon),TGI (HCC-2998 colon),GI50 (OVCAR-5 ovarian),TGI (OVCAR-5 ovarian),GI50 (NCI/ADR-RES ovarian),TGI (NCI/ADR-RES ovarian)
N=C(N)c1ccc(-c2ccc(-c3ccco3)o2)cc1,2.92 µM,11.8,11 µM,26.6 µM,6.42 µM,24.1,4.82 µM,24.2 µM,3.11,15.2,3.94 µM,16.6 µM,2.58,7.22 µM,1.85 µM,3.42 µM,4.98 µM,18.8 µM,10.1 µM,28.5 µM
O=C(O)c1cc(/C=C/c2ccc(O)c(O)c2)ccc1O,–,> 100,–,> 100 µM,–,> 100,–,> 100 µM,–,82.1,–,> 100 µM,–,> 100 µM,–,> 100 µM,–,> 100 µM,–,> 100 µM
NC(=O)c1ncn(C2CCC(CP(=O)(O)O)C2)c1N (stereo unspecified),–,> 100,–,> 100 µM,–,> 100,–,> 100 µM,–,–,–,> 100 µM,–,> 100 µM,–,> 100 µM,–,> 100 µM,–,> 100 µM
O=C1C=Cc2cc3ccccc3c3cccc1c23,4.38 µM,43.1,2.57 µM,9.95 µM,14.5 µM,> 100,4.09 µM,11.7 µM,4.35,18.3,2.51 µM,7.1 µM,3.21,18.6 µM,0.413 µM,3.18 µM,3.44 µM,27.5 µM,3.33 µM,19.2 µM
NC(=O)NC1=NCCC(=O)N1CCc1c[nH]c2ccccc12,–,> 100,–,43.4 µM,–,52.9,–,80.1 µM,–,37.9,–,6.54 µM,–,73 µM,–,44.4 µM,–,> 100 µM,–,52.8 µM
COc1ccc2c(c1)Cc1cc(N=[N+]([O-])c3ccc4c(c3)Cc3cc(OC)ccc3-4)ccc1-2,–,30.8,–,> 100 µM,–,> 100,–,> 100 µM,–,> 100,–,> 100 µM,–,> 100 µM,–,27.3 µM,–,> 100 µM,–,> 100 µM
Cc1ccc(NC(=O)C(=O)C2C(=O)C3=C(CC2(C)C)NC2C=CC=CC2S3)c(C)c1 (stereo unspecified),–,> 100,–,> 100 µM,–,> 100,–,> 100 µM,–,> 100,–,> 100 µM,–,> 100 µM,–,> 100 µM,–,–,–,> 100 µM
COc1ccc(/C(C#N)=C/c2nc3c(N4CCOCC4)nc(Cl)nc3n2C)cc1OC,< 0.01 µM,1.51,< 0.01 µM,2.74 µM,< 0.0105 µM,1.93,< 0.01 µM,2.68 µM,< 0.01,0.146,< 0.01 µM,1.38 µM,< 0.01,1.62 µM,0.0163 µM,1.22 µM,< 0.0171 µM,2.32 µM,< 0.01 µM,< 0.01 µM
COc1ccc(-n2cc(-c3ccc(Cl)cc3)[nH]c2=S)cc1Cl,32.3 µM,> 100,84.4 µM,> 100 µM,20.7 µM,48.6,23.8 µM,56.6 µM,60.6,> 100,24.3 µM,56.7 µM,> 100,> 100 µM,57.4 µM,> 100 µM,> 100 µM,> 100 µM,42.2 µM,> 100 µM
O=C(O)/C=C/C(=O)Nc1cccc2c1-c1ccccc1C2=O,–,> 57.5,–,> 100 µM,–,> 100,–,47.5 µM,–,> 28.3,–,> 100 µM,–,> 100 µM,–,71.8 µM,–,> 100 µM,–,> 92.1 µM
COC(=O)C(=O)C(C(=O)C(=O)Nc1ccc(Cl)cc1Cl)c1nc2ccc(Cl)cc2[nH]c1=O (stereo unspecified),–,> 100,–,> 100 µM,–,> 100,–,> 100 µM,–,> 100,–,> 100 µM,–,> 100 µM,–,> 100 µM,–,> 100 µM,–,> 100 µM
c1ccc2c(c1)N=c1ccccc1=P21c2ccccc2Nc2ccccc21,–,11.3,–,5.34 µM,–,19.9,–,3.89 µM,–,0.737,–,8.02 µM,–,> 71.4 µM,–,4.06 µM,–,3.81 µM,–,> 100 µM
COc1cccc(-n2cnc3c(N/N=C/c4ccncc4)ncnc32)c1,> 25 µM,> 25,> 25 µM,> 25 µM,11.6 µM,> 25,7.47 µM,> 25 µM,> 25,> 25,7.34 µM,> 25 µM,9.83,> 25 µM,> 25 µM,> 25 µM,> 25 µM,> 25 µM,> 25 µM,> 25 µM
CC(C)=CCNc1ncnc2c1ncn2C1OC(COP(=O)(O)O)C(O)C1O (stereo unspecified),> 100 µM,> 100,6.68 µM,> 100 µM,5.01 µM,34.3,2.67 µM,21.8 µM,3.32,> 100,3.6 µM,> 67.7 µM,2.72,> 64.1 µM,10.7 µM,> 100 µM,32.9 µM,> 100 µM,5.85 µM,> 100 µM
CC(C)CC(NC(=O)[C@@H]1CCCN1C(=O)CNC(=O)c1ccc(N)cc1)C(=O)N[C@H](C)C(=O)NO (stereo partly specified) (H-[4Abz]GP[ξL][dA]-{NHOH}),> 100 µM,> 100,> 100 µM,> 100 µM,> 100 µM,> 100,> 100 µM,> 100 µM,–,–,> 100 µM,> 100 µM,> 100,> 100 µM,> 100 µM,> 100 µM,> 100 µM,> 100 µM,> 100 µM,> 100 µM
CCCCCCCC(=O)SCC/C=C/[C@@H]1CC(=O)NCc2cccc(n2)CN(Cc2ccc(Cl)cc2)CC(=O)N[C@@H](C(C)C)C(=O)O1,12.6 µM,35.8,13.7 µM,> 100 µM,21.7 µM,> 100,6.05 µM,56.1 µM,4.56,> 100,28 µM,> 100 µM,20.1,> 100 µM,13.8 µM,43.7 µM,9.98 µM,> 100 µM,11.4 µM,> 100 µM
CCCCCc1c(C)[nH]c(/C=C2\N=C(c3ccc[nH]3)C=C2Oc2ccc(OC)cc2)c1C,0.0811 µM and 0.026 µM,–,0.258 µM and 0.0806 µM,2.84 µM and 1.55 µM,0.15 µM and 0.0221 µM,2.02,0.15 µM and 0.0228 µM,0.701 µM and 0.139 µM,0.0257,> 100,0.136 µM and 0.0363 µM,0.449 µM and 0.333 µM,0.113,0.759 µM,0.0963 µM and 0.0369 µM,6.44 µM and 1.91 µM,0.128 µM and 0.0591 µM,4.56 µM and 2.02 µM,0.37 µM and 0.203 µM,2.13 µM and 1.14 µM
COC1=C(NC(C)=O)C(=O)c2nc3n(c2C1=O)CCC3,–,> 59.9,–,39 µM,–,30.7,–,82.8 µM,–,14.1,–,32.8 µM,–,53.4 µM,–,65.8 µM,–,34.6 µM,–,41.1 µM
O=C1c2cc(Br)ccc2-c2c1c1ccccc1c(=O)n2CCCCl,13.5 µM,36.7,13 µM,40.9 µM,–,–,27.4 µM,90.7 µM,8.51,> 100,2.84 µM,20.6 µM,26.8,> 100 µM,14.1 µM,71.5 µM,–,–,15.2 µM,60.1 µM
COc1cc(Oc2cnc3cc(N)cc(N)c3n2)cc(OC)c1OC,> 100 µM,> 100,31.4 µM,> 100 µM,37.3 µM,> 100,37.9 µM,> 100 µM,50.7,> 100,38.2 µM,> 100 µM,50,> 100 µM,15.6 µM,32.2 µM,23 µM,62.6 µM,30.6 µM,> 100 µM
CC(=N\O)/C(C)=N/O.CC(=N\O)/C(C)=N/O.[Pd],5.12 µM,> 10,2.6 µM,6.38 µM,4.72 µM,> 10,1.94 µM,> 10 µM,2.04,6.13,> 10 µM,> 10 µM,2.44,7.08 µM,> 10 µM,> 10 µM,6.47 µM,> 10 µM,3.18 µM,7.72 µM
CC(=O)c1c[nH]c2ccc(-c3ccnc(Nc4ccc(NC(=O)c5cccc(F)c5)c(CN5CCOCC5)c4)n3)cc12,0.218 µM,> 21,0.195 µM,1.09 µM,0.307 µM,3.07,0.124 µM,1.02 µM,0.134,> 100,0.0526 µM,5.02 µM,0.112,–,0.292 µM,16.6 µM,0.129 µM,1.06 µM,0.273 µM,4.35 µM
Nc1ncnc2c1ncn2C1OC(CO)C(O)C1O (stereo unspecified),> 100 µM and 273 µM and 30.6 µM,> 450,–,> 100 µM and > 450 µM and 77.3 µM,–,> 450,16.2 µM,54.4 µM,> 100,> 284,–,> 100 µM and > 450 µM and 74.9 µM,–,> 100 µM and > 450 µM and 62 µM,1.61 µM,–,> 100 µM and 257 µM and 34.6 µM,> 450 µM,5.06 µM,–
Cc1cc(CC(O)(C(F)(F)F)C(F)(F)F)cc(CC(O)(C(F)(F)F)C(F)(F)F)n1,–,11.9,–,5.31 µM,–,12.6,–,8.23 µM,–,12,–,> 100 µM,–,12.6 µM,–,14.2 µM,–,19.2 µM,–,5.95 µM
NS(=O)(=O)OC[C@H]1O[C@@H](n2cnc3c(N[C@H]4CCc5ccccc54)ncnc32)[C@H](O)[C@@H]1O,0.0353 µM,0.121,0.185 µM,1.26 µM,0.243 µM,0.626,0.432 µM,6.93 µM,0.0419,> 100,0.054 µM,0.181 µM,0.857,7.14 µM,0.157 µM,0.331 µM,0.305 µM,2.24 µM,5.05 µM,> 100 µM
CC(=O)O/N=C1\C=Cc2c(no[n+]2[O-])C1=O,–,–,–,35.5 µM,–,31.5,–,56.3 µM,–,17.6,–,35.8 µM,–,36.4 µM,–,38.7 µM,–,32.7 µM,–,68.1 µM
O=C(/C=C/c1ccccc1O)CC(=O)/C=C/c1ccccc1O,–,13,–,16.9 µM,–,> 88.1,–,> 31.6 µM,–,> 26.2,–,29.9 µM,–,19.9 µM,–,15.8 µM,–,–,–,14.5 µM
COC(=O)c1ccc2c(c1)[n+](=O)c(C(C)=O)c(C(F)(F)F)n2[O-],1.8 µM,3.25,1.81 µM,3.38 µM,–,–,2.37 µM,5.84 µM,4.62,> 100,1.94 µM,5.07 µM,1.83,3.52 µM,1.78 µM,3.18 µM,1.67 µM,3.11 µM,2.48 µM,6.41 µM
Cc1cc(C)c2nc(Nc3nc(C)c(C)c(=O)[nH]3)nc(C)c2c1,3.18 µM,12,3.44 µM,20.4 µM,3.27 µM,15.6,4.53 µM,34.1 µM,2.72,8.61,–,–,2.94,14.5 µM,3.81 µM,19.6 µM,3.01 µM,18.5 µM,4.12 µM,57.3 µM
COC(=O)C1=C(O)C(C(=O)OC)[C@@]2(O)[C@@H](C(=O)OC)C(c3ccccc3C(F)(F)F)C[C@@H]1[C@@H]2C(=O)OC (stereo partly specified),2.01 µM,7.28,3.44 µM,11.6 µM,–,–,3.87 µM,> 100 µM,2.13,11.2,2.71 µM,6.73 µM,1.4,3.11 µM,14.2 µM,27.2 µM,17.4 µM,33.3 µM,3.78 µM,16.8 µM
